Key:
[1] = tested on: BRAFV600E PTEN−/− melanoma cell line; experiment: In vitro treatment of melanoma cell line followed by Western blot, qRT-PCR, IP, ASC polymerization or ELISA; assay type: cell-based, mouse
Text: Braf^V600EPten^−/− (male, BPD6 (40)), Braf^V600EPten^−/−-Wnt5a^KD (40), Braf^V600EPten^−/−-CXCL5^KD, Braf^V600EPten^−/−-PDL1^KD, Braf^V600EPten^−/−-NLRP3^KD, OVA-expressing Braf^V600EPten^−/−, BRAF^V600EPTEN^−/−-STAT3^CA, and Braf^V600EPten^−/−-NTC (40) cell lines were generated using shRNA-expressing lentiviral vectors and cultured as previously described (40): shNLRP3 (Sigma, SHCLN-NM_145827), shPDL1 (Sigma, SHCLND-NM_021893), shWnt5a (Sigma, SHCLND-NM_009524), shTLR4 (Sigma, SHCLNG-NM_025817, and pLKO.1-puro empty vector control (NTC) (Sigma, SHC001). Stable cell lines were selected by puromycin resistance (Sigma-Aldrich, P8833). Murine Lewis Lung Carcinoma (LLC) cell line is from ATCC (1704526). All cell lines were tested Mycoplasma-free by Duke University Cell Culture Facility shared services. All Braf^V600EPten^−/− cell lines and the LLC cell line were maintained at 37° C. in DMEM (Invitrogen) with 2 mM L-glutamine, supplemented with 10% fetal bovine serum, 100 units/ml penicillin. Depending on the experiment, cell lines were treated with Wnt5a (100-200 ng/ml, R&D Systems/Bio-techne, 645-WN-010), IFNγ (100 ng/ml, BioAbChem, 42-IFNg), anti-PD-L1 ab (1-2 μg/ml), Hsp70 (1 μM-10 μM, Enzo, ADI-ESP-502-D), Hsp70 inhibitor (ThermoFisher, VER155008), CLI-095 TLR4 inhibitor (3 μM-10 μM, Invivogen, tlrl-cli95), TLR2-IN-C29 TLR2 inhibitor (1 μM-10 μM, Glixx, GLXC-06203), MPLA TLR4 agonist (10 μM, Enzo, ALX-581-205-C100), LPS (Lipopolysaccharide) (10 ng, Sigma-Aldrich, L4391-1MG), ATP (1 mM-5 mM, Invivogen, tlrl-atpl), MCC950 NLRP3 inhibitor (2.5 μM-10 μM, Invivogen, inh-mcc), XAV939 β-catenin inhibitor (0.5-1.0 μM, Sigma-Aldrich, X3004-5MG), 2-Aminopurine PKR inhibitor (1 mM-5 mM, Invivogen, tlrl-apr), Verteporfin YAP inhibitor (0.1 μM-1 μM, R&D Systems/Bio-techne, 530510) or vehicle control either for 24 or 48 hrs prior to in vitro and in vivo experiments. Control siRNA (Santa Cruz, sc-37007). TLR4 siRNA (SantaCruz, sc-40261).
OT-1 CD8 cell activation was performed by incubating isolated splenocytes of OT-1 transgenic mice with IL-2 (100 U/ml) and SIINFEKL peptide (1 μg/ml, New England Peptide, BP10-915) for 3 days followed by magnetic bead CD8 purification according to the manufacturer's instructions (Miltenyi biotec, 130-104-075). Activated OT-1 CD8 cells were incubated with Braf^V600EPten^−/−-OVA cells and treated with anti-PD1 ab (1 μg/ml) for 72 hrs at a tumor cell:CD8^+ T cell ratio of 1:5. In separate experiments, Braf^V600EPten^−/− cells were treated with increasing concentrations of Dacarbazine (10 μmol-400 μmol).
Tumor tissue or cells were homogenized in NP40 lysis buffer (Sigma-Aldrich) supplemented with complete protease inhibitor and phosphatase inhibitor (Roche). Cells were lysed in Laemmli sample buffer after treatment and subjected to SDS-polyacrylamide gel electrophoresis. After transferring onto PVDF membranes (Bio-Rad), monoclonal and polyclonal primary antibodies and appropriate HRP-conjugated secondary antibodies were utilized for blotting. For the immunoprecipitation assays, cells were lysed with TBS buffer (50 mM Tris-HCl (pH 7.4), 150 mM NaCl) containing 0.5% Triton X-100, EDTA-free protease inhibitor cocktail and phosphatase inhibitor cocktail, precleared with protein A/G beads, and then incubated with 1 μg of appropriate antibodies or isotype control IgG on a rotator overnight at 4° C. then incubated with protein A/G-agarose at 4° C. for 1 hour. After 5 washes with TBS buffer, immunoprecipitated complexes were eluted in sample buffer by boiling and subjected to immunoblot analysis. Immunoblots were visualized by chemiluminescence substrate (ThermoFisher) and imaged by a ChemiDoc XRSplus system (BioRad). For the ASC polymerization assay, cells were lysed with TBS buffer containing 0.5% Triton X-100, EDTA-free protease inhibitor cocktail and phosphatase inhibitor cocktail. The lysates were centrifuged at 4,000 g at 4° C. for 15 min. […]

[2] = tested on: WM266 human melanoma cell line; experiment: In vitro treatment of human melanoma cell line followed by Western blot; assay type: cell-based; details: with or without TLR4 inhibitor; in a TLR4-dependent manner
Text: FIG. 7A-G. The PD-L1/NLRP3/HSP70 PMN-MDSC adaptive recruitment pathway in human melanoma. (A) Supernatant HSP70 and caspase-1 p20 Western blot analysis following treatment of human WM266 melanoma cells with IFN-γ with or without anti-PD-L1 Ab. Blots are representative of 3 independent experiments. (B) Wnt5A Western blot analysis of HSP70-treated human WM266 melanoma cells with or without TLR4 inhibitor. Blots are representative of 3 independent experiments. (C) HSP70 and caspase-1 p20 Western blot analysis following treatment of human WM266 melanoma cells with ATP in the absence and presence of MCC950. Blots are representative of 2 independent experiments. (D) Cytolytic T cell markers correlated with ITGAM (CD11B), CD33, and NLRP3 gene expression in the melanoma TCGA-SKCM database. (E) RNA-Seq analysis of human melanoma tissue specimens collected before anti-PD-1 Ab therapy and at the time of disease progression on anti-PD-1 Ab therapy. TPM, transcripts per million. (F) Plasma HSP70 ELISA at week 0 and week 12 in patients with advanced melanoma undergoing anti-PD-1 Ab immunotherapy. (G) Change in HSP70 plasma levels following anti-PD-1 Ab immunotherapy in patients with advanced melanoma who were responders (R) or nonresponders (NR). The response was based on week-12 CT imaging. HSP70 changes were normalized to target tumor burden based on week-12 CT imaging. […]

[3] = tested on: autochthonous BRAFV600E PTEN−/− melanoma model; experiment: Autochthonous tumor study: tumor growth, Gr-1 IHC, flow cytometry of tumor-infiltrating cells, serial biopsy qRT-PCR; assay type: in vivo, mouse
Experimental: B6.Cg-Braf^tm1MmcmPten^tm1Hwu Tg(Tyr-cre/ERT2 H-2^b)13Bos/BosJ transgenic mice were subdermally injected with 4-Hydroxytomoxifen (4-HT) (Sigma, H6278-50MG CCF, 38.75 μg/mouse) to induce primary melanoma development at the base of the tail. Mice were randomly assigned to treatment cohorts once tumor volumes reached 64 mm^3 (19, 30, 50). Depending on the experiment, mice were treated with the following agents: CXCR2 inhibitor (AZD5069, AstraZeneca) at 100 mg/kg per os (po) twice daily, NLRP3 inhibitor (MCC950) 10 mg/kg i.p every other day, anti-PD1 ab (BioXCell) or rat IgG2a isotype control (BioXCell) at 200 μg by i.p. injection every 3 days, Dacarbazine (50 mg/kg or 75 mg/kg, Sigma-Aldrich, D2390) by i.p. injection once every other day. Melanoma growth was monitored by orthogonal caliper measurements every 3 days.
Tumors were resected and mechanically disaggregated by a gentleMACS dissociator (Miltenyi), filtered through 70-μm filters and digested with RPMI containing collagenase IV (1 mg/mL, Sigma-Aldrich), hyaluronidase (0.1 mg/mL, Sigma-Aldrich), and deoxyribonuclease (20 U/mL, Sigma-Aldrich) on a shaker at 250 rpm at 37° C. for 1 hour (23). Resected splenic and lymph node tissues were mechanically disaggregated using 1 cc syringe plunger and 40 μm filters followed by treatment with RBC lysis buffer (Sigma-Aldrich).
Paraffin-embedded tissues were processed and stained following standard protocols and imaged with a Zeiss CLSM 700 confocal microscope. The following antibodies were used in immunohistochemistry and immunofluorescence experiments: anti-Wnt5a (1 μg/ml), anti-Ly6G (0.5 μg/ml), anti-CD8a (0.5 μg/ml) and anti-CXCL5 (1 μg/ml). Tissue was permeabilized by incubation in 0.4% Triton-X in TBS for 20 min. Goat anti-rabbit conjugated to Alexa Fluor 564 and goat anti-mouse Alexa 488 were used as secondary antibodies for the appropriate primary antibody. For immunohistochemistry, anti-rat polymers were used as secondary antibodies and Warp Red chromogen detection system (BioCare, WR806S) was used for antigen visualization.
One million cells were stained with 1 μg per million cells of each fluorochrome conjugated antibodies or commercially available dyes according to the standard protocols and analyzed using a FACSCanto II or LSRII (Becton Dickinson). Cells were stained with Fc receptor blocking antibodies followed by a live/dead discriminator (CellTrace Violet, ThermoFisher, C34571), then by conjugated antibodies for 30 min at 4° C. Cell number was calculated by hemocytometer. Flow cytometry data was analyzed using Flowjo software v10.3.
Total RNA was isolated by RNeasy Plus Mini Kit (Qiagen, 74134). […] All data were normalized to Actb expression, and relative gene expression was quantitated based on the 2_DDCt method.

[4] = tested on: human melanoma tissue specimens; experiment: RNASeq of human melanoma tissue at baseline and during disease progression; assay type: in vivo; details: following disease progression versus baseline
Text: All plasma samples were collected from 17 advanced melanoma patients undergoing anti-PD-1 ab immunotherapy at week 0 and week 12 on an ongoing tissue acquisition protocol investigating checkpoint inhibitor resistance at Duke Cancer Institute (NCT02694965). Three paired tumor specimens obtained at week 0 and at the time of disease progression while undergoing anti-PD-1 ab immunotherapy were collected at Vanderbilt University Medical Center (Institutional Protocol #: 100178). Treatment responses were evaluated based on RECIST (Response Evaluation Criteria in Solid Tumors v1.1).
RNA-seq was performed by Duke Sequencing and Genomic Technologies Shared Resources. A complementary DNA library was prepared via oligo-dT-directed reverse transcription (Ambion) and subjected to deep sequencing on IlluminaHiSeq4000 (50-bp single-read sequencing; Anti-PD-1 resistance Study RNA-seq, accession number: SAMN09878780). RNA-seq data generated here and publicly available RNA-seq data were processed by Duke Center for Genomic and Computational Biology using the TrimGaloretoolkit that uses Cutadapt to trim low-quality bases and Illumina sequencing adapters from the 3′ end of the reads. Only reads that were of 20 nucleotides (nt) or longer after trimming were kept for further analysis. Reads were mapped to the GRCm38v68 version of the mouse genome and transcriptome using the STAR RNA-seq alignment tool. […]

[5] = CXCR2 inhibitor 100 mg/kg po twice daily combined with anti-PD-1 Ab

Molecule: HSP70: recombinant HSP70 (1 μM-10 μM, Enzo, ADI-ESP-502-D)
- receptor dependence of HSP70 stimulation of Wnt5a expression ([1]; pharmacologic inhibitor and shRNA silencing studies): TLR4 dependent
- Wnt5a expression after HSP70 stimulation (Western blot) ([1]; titrated concentrations, in a dose-dependent manner): induced upregulation
- Wnt5a upregulation by HSP70 [2]: induced

Molecule: C[C@@H](Oc1cc(NS(=O)(=O)N2CCC2)nc(SCc2cccc(F)c2F)n1)[C@@H](O)CO [AZD5069]
- CD8+ T cell tumor infiltration [3, 5]: enhanced
- PMN-MDSC recruitment in response to anti-PD-1 Ab therapy [3, 5]: significantly suppressed
- tumor progression [3, 5]: suppressed
- time dependence of impact on tumor volume change rate ([3]; correlating with the period of PMN-MDSC influx into the tumor): more significant at later time points

Molecule: IL-1β: recombinant IL-1β at titrated concentrations
- induction of Wnt5a expression by tumor cells ([1]; titrated concentrations of recombinant IL-1β): no evidence

Molecule: nivolumab: an anti-PD-1 antibody, available from Bristol-Myers Squibb Co
- expression of myeloid markers CXCL1, CD33, ITGAM, CXCR2, S00A8 and S00A9 [4]: elevated expression

B1: rWnt5a: recombinant Wnt5a (100-200 ng/ml, R&D Systems/Bio-techne, 645-WN-010) (protein, UniProt P41221 62-380, looked up)
Protein Wnt-5a: IIGAQPLCSQLAGLSQGQKKLCHLYQDHMQYIGEGAKTGIKECQYQFRHRRWNCSTVDNTSVFGRVMQIGSRETAFTYAVSAAGVVNAMSRACREGELSTCGCSRAARPKDLPRDWLWGGCGDNIDYGYRFAKEFVDARERERIHAKGSYESARILMNLHNNEAGRRTVYNLADVACKCHGVSGSCSLKTCWLQLADFRKVGDALKEKYDSAAAMRLNSRGKLVQVNSRFNSPTTQDLVYIDPSPDYCVRNESTGSLGTQGRLCNKTSEGMDGCELMCCGRGYDQFKTVQTERCHCKFHWCCYVKCKKCTEIVDQFVCK
- diminished CXCL5 expression of Wnt5a-knockdown cell line after addition of rWnt5a ([1]; BRAFV600E PTEN−/− Wnt5aKD cells, qRT-PCR): rescued
- YAP stabilization (Western blot) ([1]; rWnt5a at various time points): induced
- Cxcl2, Cxcl5 and Cxcl1 gene expression (qRT-PCR) ([1]; rWnt5a versus vehicle control): induced
- CXCL5 expression (Western blot) ([1]; rWnt5a, in a YAP-dependent manner): stimulating

Reference: patent US12121565B2, “Methods of treatment of specific cancers with NLRP3 inhibitors and anti-PD1/PD-L1 antibodies” (Duke University, priority 2019, dated 2024)
